Reference: patent US6380237B1, “Diphenylimidazolines” (Bayer Aktiengesellschaft, priority 1998, dated 2002)

Assays:
[1] = tested on: all stages of the greenhouse red spider mite (Tetranychus urticae); test: Tetranychus test (OP-resistant/dip treatment); type: in vivo
Description: Tetranychus test (OP-resistant/dip treatment)
(§1) Solvent: 7 parts by weight of dimethylformamide
(§2) Emulsifier: 1 part by weight of alkylaryl polyglycol ether
To produce a suitable preparation of active compound, 1 part by weight of active compound is mixed with the stated amount of solvent and emulsifier, and the concentrate is diluted with emulsifier-containing water to the desired concentration.
Bean plants (Phaseolus vulgaris) which are heavily infested by all stages of the greenhouse red spider mite (Tetranychus urticae) are dipped into a preparation of active compound of the desired concentration.
After the desired period of time, the effect in % is determined. 100% means that all spider mites have been killed, 0% means that none of the spider mites have been killed.

[2] = tested on: caterpillars of the army worm (Spodoptera frugiperda); test: Spodoptera frugiperda test; type: in vivo; details: active compound concentration of 0.1%, after 7 days, dipped cabbage leaves
Description: Spodoptera frugiperda test
as §1, §2
To prepare a suitable preparation of active compound, 1 part by weight of active compound is mixed with the stated amount of solvent and emulsifier, and the concentrate is diluted with water to the desired concentration.
Cabbage leaves (Brassica oleracea) are treated by being dipped into the preparation of active compound of the desired concentration and populated with caterpillars of the army worm (Spodoptera frugiperda) while the leaves are still moist.
After the desired period of time, the kill in % is determined. 100% means that all caterpillars have been killed; 0% means that none of the caterpillars have been killed.

[3] = tested on: mustard beetle larvae (Phaedon cochleariae); test: Phaedon larvae test; type: in vivo; details: active compound concentration of 0.1%, after 7 days, dipped cabbage leaves
Description: Phaedon larvae test Solvent: 7 parts by weight of dimethylfornamide Emulsifier: 1 part by weight of alkylaryl polyglycol ether To produce a suitable preparation of active compound, 1 part by weight of active compound is mixed with the stated amount of solvent and emulsifier, and the concentrate is diluted with water to the desired concentration. Cabbage leaves (Brassica oleracea) are treated by being dipped into the preparation of active compound of the desired concentration and populated with mustard beetle larvae (Phaedon cochleariae) while the leaves are still moist.

Lucilia cuprina larvae = test: Blowfly larvae test/development-inhibitory action; type: in vivo; details: active compound concentration of 100 ppm; 100% means that none of the flies have hatched
Description: Blowfly larvae test/development-inhibitory action
Test animals: Lucilia cuprina larvae
Solvent: Dimethylsulfoxide
20 mg of active compound are dissolved in 1 ml of dimethyl suiphoxide, and more dilute concentrations are prepared by dilution with dist. water.
Approximately 20 Lucilia cuprina larvae are introduced into a test tube which contains approximately 1 cm^3 of horse meat and 0.5 ml of the active compound preparation to be tested. After 24 and 48 hours, the efficacy of the preparation of active compound is determined. The test tubes are transferred into a beaker with sand-covered bottom. After a further 2 days, the test tubes are removed and the pupae are counted.
The effect of the preparation of active compound is assessed by the number of the flies which have hatched after 1.5 times the development time of an untreated control. 100% means that none of the flies have hatched; 0% means that all flies have hatched normally.

[4] = active compound concentration of 0.01%, after 7 days, dipped bean plants

| melting point | Compound | kill [1, 4] | kill [2] | kill [3] | kill ([1]; 168 h) | efficacy (Lucilia cuprina larvae) |
| --- | --- | --- | --- | --- | --- | --- |
| 123 to 124 °C | N#CN1CC(c2ccc(-c3ccc(OC(F)(F)F)cc3)cc2)N=C1c1c(F)cccc1F (stereo not drawn) [Example I-5a, 1-cyano-4-(4′-trifluoromethoxy-4-biphenylyl)-2-(2,6-difluorophenyl)-4,5-dihydro-1H-imidazole] | 100% | 100% | 100% |  |  |
|  | CC(=O)N1CC(c2ccc(-c3ccc(OC(F)(F)F)cc3)cc2)N=C1c1c(F)cccc1F (stereo not drawn) [Example I-7a, 1-acetyl-4-(4′-trifluoromethoxy-4-biphenylyl)-2-(2,6-difluorophenyl)-4,5-dihydro-1H-imidazole] | 100% | 100% | 90% |  |  |
|  | CCOCN1CC(c2ccc(-c3ccc(OC(F)(F)F)cc3)cc2)N=C1c1c(F)cccc1F (stereo not drawn) [Example I-6a, 1-ethoxymethyl-4-(4′-trifluoromethoxy-4-biphenylyl)-2-(2,6-difluorophenyl)-4,5-di-hydro-1H-imidazole] | 100% | 100% | 100% |  |  |
| 93 to 95 °C | NC(=S)N1CC(c2ccc(-c3ccc(OC(F)(F)F)cc3)cc2)N=C1c1c(F)cccc1F (stereo not drawn) [Example I-8, 4-(4′-trifluoromethoxy4-biphenylyl)-2-(2,6-difluorophenyl)-1-thiocarbamoyl-4,5-dihydro-1H-imidazole] | 95% | 100% | 100% |  |  |
|  | N#CN1C(c2c(F)cccc2F)=NCC1c1ccc(-c2ccc(OC(F)(F)F)cc2)cc1 (stereo not drawn) [Example I-5b, 3-cyano-4-(4′-trifluoromethoxy-4-biphenylyl)-2-(2,6-difluorophenyl)-4,5-dihydro-3H-imidazole] | 100% | 100% | 100% |  |  |
|  | CCOCN1C(c2c(F)cccc2F)=NCC1c1ccc(-c2ccc(OC(F)(F)F)cc2)cc1 (stereo not drawn) [Example I-6b, 3-ethoxymethyl-4-(4′-trifluoromethoxy-4-biphenylyl)-2-(2,6-difluorophenyl)-4,5-di-hydro-3H-imidazole] |  |  | 100% |  |  |
|  | CCOC(=O)N1CC(c2ccc(-c3ccc(OC(F)(F)F)cc3)cc2)N=C1c1ccccc1Cl (stereo not drawn) [Example I-4, 2-(2-chlorophenyl)-1-ethoxycarbonyl-4-(4′-trifluormethoxy-4-biphenylyl)-4,5-dihydro-1H-imidazole] |  | 100% | 100% |  |  |

| Compound | melting point | kill [1, 4] | kill [2] | kill [3] | kill ([1]; 168 h) | efficacy (Lucilia cuprina larvae) |
| --- | --- | --- | --- | --- | --- | --- |
| CCOC(=O)N1CC(c2ccc(-c3ccc(OC(F)(F)F)cc3)cc2)N=C1c1c(F)cccc1F (stereo not drawn) [Example I-3, 1-ethoxycarbonyl4-(4′-trifluoromethoxy-4-biphenylyl)-2-(2,6-difluoro-phenyl)-4,5-dihydro-1H-imidazole] | 105 to 107 °C |  | 100% |  | 100% | 100% |
